Data: US12544395B2, “Combination compositions comprising a beta-lactamase inhibitor and uses thereof” (priority 2018, dated 2026)
Converted amounts (≈) assume the structure as drawn. “And” between values parts separate entries of the source, which are not always exact repeats. Identical values can stand only once.

What was measured:
[1] = tested on: ESBL-expressing Enterobacteriaceae (n = 33); assay: Broth microdilution MIC, ceftibuten/Compound 2 vs IV comparators; format: cell-based; settings: for Number of strains at MIC value 0.5 mg/L / Number of strains at MIC value 1 mg/L / Number of strains at MIC value 2 mg/L / Number of strains at MIC value 4 mg/L / Number of strains at MIC value 8 mg/L / Number of strains at MIC value 16 mg/L / Number of strains at MIC value […] / Number of strains at MIC value ≤0.06 mg/L / Number of strains at MIC value ≥32 mg/L: ESBL-expressing (n = 33); for MIC50 / MIC90: iv
[2] = tested on: KPC-expressing Enterobacteriaceae (n = 77); assay: organism not typed; format: cell-based; settings: for Number of strains at MIC value 0.5 mg/L / Number of strains at MIC value 1 mg/L / Number of strains at MIC value 2 mg/L / Number of strains at MIC value 4 mg/L / Number of strains at MIC value 8 mg/L / Number of strains at MIC value 16 mg/L / Number of strains at MIC value […] / Number of strains at MIC value ≤0.06 mg/L / Number of strains at MIC value ≥32 mg/L: KPC-expressing (n = 77); for MIC50 / MIC90: iv
[3] = tested on: AmpC/CMY-expressing Enterobacteriaceae (n = 44); assay: Broth microdilution MIC, ceftibuten/Compound 2 vs IV comparators; format: cell-based; settings: for Number of strains at MIC value 0.5 mg/L / Number of strains at MIC value 1 mg/L / Number of strains at MIC value 2 mg/L / Number of strains at MIC value 4 mg/L / Number of strains at MIC value 8 mg/L / Number of strains at MIC value 16 mg/L / Number of strains at MIC value […] / Number of strains at MIC value ≤0.06 mg/L / Number of strains at MIC value ≥32 mg/L: AmpC/CMY-expressing (n = 44); for MIC50 / MIC90: iv
[4] = tested on: OXA-48-expressing Enterobacteriaceae (n = 39); assay: as above

Compound	Number of strains at MIC value 0.5 mg/L [1]	Number of strains at MIC value 1 mg/L [1]	Number of strains at MIC value 2 mg/L [1]	Number of strains at MIC value 4 mg/L [1]	Number of strains at MIC value 8 mg/L [1]	Number of strains at MIC value 16 mg/L [1]	Number of strains at MIC value […] [1]	Number of strains at MIC value ≤0.06 mg/L [1]	Number of strains at MIC value ≥32 mg/L [1]	MIC50 [1]	MIC90 [1]	Number of strains at MIC value 0.5 mg/L [2]	Number of strains at MIC value 1 mg/L [2]	Number of strains at MIC value 2 mg/L [2]	Number of strains at MIC value 4 mg/L [2]	Number of strains at MIC value 8 mg/L [2]	Number of strains at MIC value 16 mg/L [2]	Number of strains at MIC value […] [2]	Number of strains at MIC value ≤0.06 mg/L [2]	Number of strains at MIC value ≥32 mg/L [2]	further results
C[C@@H](O)[C@H]1C(=O)N2C(C(=O)O)=C(S[C@@H]3CN[C@H](C(=O)N(C)C)C3)[C@H](C)[C@H]12 [Meropenem]	0	1	1	0	1	0	1 and 0	29	0	≤ 0.06 µg/mL	0.125 µg/mL (≈ 0.326 µM)	1	0	3	4	11	13	0	1	44	MIC50 [2]: ≥ 32 µg/mL; MIC90 [2]: ≥ 32 µg/mL; Number of strains at MIC value 0.5 mg/L [3]: 2; Number of strains at MIC value 1 mg/L [3]: 1; Number of strains at MIC value 2 mg/L [3]: 0; Number of strains at MIC value 4 mg/L [3]: 3; Number of strains at MIC value 8 mg/L [3]: 0; Number of strains at MIC value 16 mg/L [3]: 0; Number of strains at MIC value […] [3]: 2; Number of strains at MIC value ≤0.06 mg/L [3]: 34; Number of strains at MIC value ≥32 mg/L [3]: 0; MIC50 [3]: ≤ 0.06 µg/mL; MIC90 [3]: 0.5 µg/mL (≈ 1.3 µM); MIC50 [4]: 2 µg/mL (≈ 5.22 µM); MIC90 [4]: 8 µg/mL (≈ 20.9 µM)
CN(C)c1cc(NC(=O)CNC(C)(C)C)c(O)c2c1C[C@H]1C[C@H]3[C@H](N(C)C)C(O)=C(C(N)=O)C(=O)[C@@]3(O)C(O)=C1C2=O [Tigecycline]	11	3	3	2	0	0	4 and 10	0	0	0.5 µg/mL (≈ 0.854 µM)	2 µg/mL (≈ 3.41 µM)	19	34	15	5	0	0	0 and 4	0	0	MIC50 [2]: 1 µg/mL (≈ 1.71 µM); MIC90 [2]: 2 µg/mL (≈ 3.41 µM); Number of strains at MIC value 0.5 mg/L [3]: 8; Number of strains at MIC value 1 mg/L [3]: 10; Number of strains at MIC value 2 mg/L [3]: 10; Number of strains at MIC value 4 mg/L [3]: 4; Number of strains at MIC value 8 mg/L [3]: 2; Number of strains at MIC value 16 mg/L [3]: 0; Number of strains at MIC value […] [3]: 4 and 6; Number of strains at MIC value ≤0.06 mg/L [3]: 0; Number of strains at MIC value ≥32 mg/L [3]: 0; MIC50 [3]: 1 µg/mL (≈ 1.71 µM); MIC90 [3]: 4 µg/mL (≈ 6.83 µM); MIC50 [4]: 0.5 µg/mL (≈ 0.854 µM); MIC90 [4]: 2 µg/mL (≈ 3.41 µM)
